In patent US20130108702A1, “COPPER/SILICA NANOPARTICLES, METHODS OF MAKING, AND METHODS OF USE” (priority 2011, published 2013):

Key:
E. coli = format: cell-based, Escherichia coli (ATCC 35218); details: ppm of silver, organism not given
Procedure: (§1) Antibacterial properties of C—S CuSiNP and AgSiNG materials were evaluated against a gram positive Bacillus subtilis (B. subtilis, ATCC 9372) and a gram negative Escherichia coli (E. coli, ATCC 35218) organism. For all antibacterial assays, bacterial concentration of 10^5 cells/mL was considered. Copper sulfate with same metallic copper concentration was used as positive controls and silica nanoparticle (without Cu loading) was used as negative control.
(§2) Two sets of different concentrations of C—S CuSiNP were made in LB broth (0.49, 1.2, 2.4, 4.9, 7.2 and 9.8 ppm copper concentration) to a final volume of 10 mL. 250 μL (10^5 cells/mL) of E. coli and B. subtilis were added to set 1 and 2 respectively. Silica nanoparticle was used as negative control and copper sulfate with equivalent amount of copper was used as positive control. […]
(§3) The growth inhibitory effects of C—S CuSiNP and AgSiNG against E. coli and B. subtilis were studied in liquid media (FIG. 2.3 and FIG. 2.4). Bacterial growth with different concentrations of C—S CuSiNP and AgSiNG (0.49 to 9.8 μg mL^−1) was monitored after 24 hours of incubation at 37° C. by measuring the optical density at 600 nm using Teysche800 spectrophotometer. Since the turbidity of silica based material can interfere with the optical density reading, the background measurement was subtracted to calculate the final reading.

B. subtilis = format: cell-based, Bacillus subtilis (ATCC 9372); details: ppm of silver, organism not given
Procedure: as §1, §2, §3

SMILES: O=[N+]([O-])[O-].[Ag+] [silver nitrate]
- silver concentration at which growth inhibition can be seen (E. coli): 2.4 ppm
- silver concentration at which growth inhibition can be seen (B. subtilis): 2.4 ppm
